Reference: US7795236B2, “Purine nucleoside derivative modified in 8-position and medical use thereof” (Kissei Pharmaceutical Co., Ltd., priority 2005, dated 2010)

What was measured:
human CNT2 [1] = target: T1, human CNT2 (Homo sapiens, UniProt O43868, I160M/P22L/S45C); assay: Inhibitory activity against uptake of inosine through human CNT2; type: cell-based; conditions: 14C-labeled inosine 10 μM, COS-7 cells transiently expressing human CNT2, 30 minutes at 37° C.
T1 construct: expressed in transfected cells; host or cells: COS-7 cells (RIKEN CELL BANK RCB0539), transient lipofection of a pCI-neo plasmid
T1 sequence (O43868 1-658 P22L/S45C/I160M): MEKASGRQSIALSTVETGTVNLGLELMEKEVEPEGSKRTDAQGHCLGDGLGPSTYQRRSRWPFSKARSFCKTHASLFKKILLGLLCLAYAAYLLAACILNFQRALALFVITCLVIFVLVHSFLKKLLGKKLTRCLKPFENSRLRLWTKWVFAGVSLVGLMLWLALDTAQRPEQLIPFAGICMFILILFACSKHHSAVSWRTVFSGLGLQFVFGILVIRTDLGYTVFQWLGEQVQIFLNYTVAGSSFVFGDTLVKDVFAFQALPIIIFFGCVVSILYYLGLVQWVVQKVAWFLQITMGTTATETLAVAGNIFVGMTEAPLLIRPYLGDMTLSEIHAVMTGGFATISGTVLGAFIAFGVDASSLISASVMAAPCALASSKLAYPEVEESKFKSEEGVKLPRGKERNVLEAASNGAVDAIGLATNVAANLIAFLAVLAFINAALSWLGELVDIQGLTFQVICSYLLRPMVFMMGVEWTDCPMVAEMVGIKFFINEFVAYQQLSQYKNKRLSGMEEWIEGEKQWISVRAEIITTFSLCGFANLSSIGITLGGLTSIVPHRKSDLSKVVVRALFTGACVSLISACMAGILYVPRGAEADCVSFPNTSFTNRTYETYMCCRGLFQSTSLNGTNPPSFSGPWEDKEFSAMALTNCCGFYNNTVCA
Procedure: Expression plasmid of human CNT2 was transfected into COS-7 cells (RIKEN CELL BANK RCB0539) by lipofection method. LIPOFECTAMINE 2000 (Invitrogen) was used as a lipofection reagent. COS-7 cells were diluted in D-MEM (Invitrogen) containing 10% fetal calf serum (Sanko Junyaku) at 5×10^5/1 mL, and seeded into collagen-coated 96-well plates (IWAKI) at 100 μL/well and cultured at 37° C. for 2 hours with 5% CO2 condition. For each well, 0.6 μL of LIPOFECTAMINE 2000 (Invitrogen) was diluted in 25 μL of OPTI-MEM (Invitrogen), and incubated for 7 minutes at room temperature (hereinafter referred to as Lipo 2000-OPTI). For each well, 0.3 μg of plasmid was diluted in 25 μL of OPTI-MEM (Invitrogen), and the solution was added to the Lipo 2000-OPTI and mixed gently and incubated for 30 minutes at room temperature, and was transferred 50 μL for each well to culture medium. The cells were incubated at 37° C. with 5% CO2 condition for 2 days, and used for the uptake assays.
An Uptake buffer was prepared by addition of a mixture of non-radioisotope labeled (WAKO) and ^14C-labeled (Muromachi Yakuhin) inosine at the final concentration of 10 μM into a buffer, pH7.4, containing 140 mM sodium chloride, 2 mM potassium chloride, 1 mM calcium chloride, 1 mM magnesium chloride, 10 mM HEPES 2-[4-(2-hydroxyethyl)-1-piperazinyl]ethane sulfonic acid, 5 mM tris(hydroxymethyl)aminomethane and 5 mM glucose. For measurement of basal uptake, Basal uptake measurement buffer, which contained 140 mM choline chloride instead of sodium chloride was prepared. In uptake assays, NBMPR was added to Uptake buffer and Basal uptake measurement buffer at the final concentration of […]. In the case of measurement of inhibitory activity of test compounds, test compounds were dissolved in dimethyl sulfoxide, and then appropriately diluted with Uptake buffer as to prepare Measurement buffers. After removing culture medium of human CNT2 transiently expressing cells, Pretreatment buffer (Basal uptake measurement buffer without inosine and glucose) was added to wells at 200 μL/well and incubated at 37° C. for 10 minutes. After repeating the same step again, Pretreatment buffer was removed and Measurement buffers and Basal uptake measurement buffer were added at 75 μL/well and incubated at 37° C. After incubation for 30 minutes, Measurement buffers and Basal uptake measurement buffer were removed, and the cells were washed with Washing buffer (Basal uptake measurement buffer with non-radioisotope labeled inosine at 10 μM) at 200 μL/well twice. The cells were solubilized with 0.2 mol/L sodium hydroxide at 75 μL/well, and the cell lysates were transferred into PicoPlates (Perkin Elmer). After mixing with 150 μL of MicroScint-40 (Perkin Elmer), radioactivity was measured by means of scintillation counter (Perkin Elmer). One hundred % was set to the difference between the uptake in the control group and the basal uptake, and the uptake of inosine at each test compound concentration was calculated. The test compound concentration inhibiting 50% uptake of inosine (IC50 value) was calculated using logit plot.

ENT2 = target: T2, ENT2 (Homo sapiens, UniProt Q14542); conditions: ENT2 inhibited only by high concentration of NBMPR; cited from earlier work
T2 sequence (Q14542 1-456): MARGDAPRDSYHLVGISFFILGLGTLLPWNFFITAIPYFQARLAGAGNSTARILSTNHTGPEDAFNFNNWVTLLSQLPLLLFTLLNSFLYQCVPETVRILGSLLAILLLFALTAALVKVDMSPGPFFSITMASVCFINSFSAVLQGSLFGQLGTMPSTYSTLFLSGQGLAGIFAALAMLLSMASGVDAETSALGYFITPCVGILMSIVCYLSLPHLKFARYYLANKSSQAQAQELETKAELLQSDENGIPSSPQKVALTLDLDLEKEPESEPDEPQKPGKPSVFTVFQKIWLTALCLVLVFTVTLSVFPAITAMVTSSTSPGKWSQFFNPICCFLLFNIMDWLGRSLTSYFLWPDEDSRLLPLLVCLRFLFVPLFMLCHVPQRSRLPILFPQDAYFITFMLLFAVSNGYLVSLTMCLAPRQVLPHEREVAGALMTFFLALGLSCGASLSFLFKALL

[2] = Effects of CNT inhibitor on plasma uric acid level (purine load test in rats); type: in vivo; conditions: Male SD-IGS rats, oxonic acid 100 mg/kg s.c., purine mix 50 mg/kg and test compound 50 mg/kg orally, blood after 1 hour; control group = 100%
Procedure: Male SD-IGS rats (5 weeks old) which were fasted overnight, were subcutaneously treated with oxonic acid (Aldrich; 100 mg/kg), and after 1 hour, purine mix (Adenosine: Inosine: Guanosine=1:1:1 (Adenosine (Sigma), Inosine (WAKO), Guanosine (ICN); 50 mg/kg) and test compounds (50 mg/kg) were orally administrated simultaneously. A control group was treated with oxonic acid and the purine mix, and a group administrated only oxonic acid represented endogenous plasma uric acid value. After 1 hour, blood was collected from the abdominal aorta under ether anesthesia, and the plasma was collected with Venoject II vacuum blood collecting tube (Terumo, VP-FH052). According to the method described in Journal of Chromatography B, Vol. 744 (2000), pp. 129-138, plasma uric acid level was measured by using HPLC method mentioned below. The difference between plasmauric acid value in each study group and endogenous plasma uric acid value was calculated on the basis of 100% in the control group.
Theophylline (10 μg) as an internal standard substance was added to 0.1 mL of plasma collected with the above method, and then the samples were deproteinized with 1 mL of methanol. After the samples were centrifuged, the methanol layers were evaporated to dryness under a stream of nitrogen. […] Plasma uric acid concentration was determined by HPLC method according to the condition described below. […]

human CNT2 [3] = target: T3, human CNT2 (Homo sapiens, UniProt O43868); assay: Inhibitory activity against uptake of adenosine through human CNT2; type: cell-based; conditions: 14C-labeled adenosine 10 μM, COS-7 cells transiently expressing human CNT2, 30 minutes at 37° C.
T3 construct: expressed in transfected cells; host or cells: COS-7 cells (RIKEN CELL BANK RCB0539), transient lipofection of a pCI-neo plasmid
T3 sequence (O43868 1-658 P22L/S45C/I160M): T1 sequence (O43868 1-658 P22L/S45C/I160M)
Procedure: Expression plasmid of human CNT2 was transfected into COS-7 cells (RIKEN CELL BANK RCB0539) by lipofection method. LIPOFECTAMINE 2000 (Invitrogen) was used as a lipofection reagent. COS-7 cells were diluted in D-MEM (Invitrogen) containing 10% fetal calf serum (Sanko Junyaku) at 5×10^5/1 mL, and seeded into collagen-coated 96-well plates (IWAKI) at 100 μL/well and cultured at 37° C. for 2 hours with 5% CO2 condition. For each well, 0.6 μL of LIPOFECTAMINE 2000 (Invitrogen) was diluted in 25 μL of OPTI-MEM (Invitrogen), and incubated for 7 minutes at room temperature (hereinafter referred to as Lipo 2000-OPTI). […]
An Uptake buffer was prepared by addition of a mixture of non-radioisotope labeled (Sigma) and ^14C-labeled (Amersham Biosciences) adenosine at the final concentration of 10 μM into a buffer, pH 7.4, containing 140 mM sodium chloride, 2 mM potassium chloride, 1 mM calcium chloride, 1 mM magnesium chloride, 10 mM HEPES 2-[4-(2-hydroxyethyl)-1-piperazinyl]ethane sulfonic acid, 5 mM tris(hydroxy-methyl)aminomethane and 5 mM glucose. […] After mixing with 150 μL of MicroScint-40 (Perkin Elmer), radioactivity was measured by means of scintillation counter (Perkin Elmer). One hundred % was set to the difference between the uptake in the control group and the basal uptake, and the uptake of adenosine at each test compound concentration was calculated. […]

CNT = conditions: Non-patent Reference 14; cited from earlier work

Structure (SMILES)	IC50 (human CNT2 [1])	further results
NCCCOc1cc(CNc2nc3c(N)ncnc3n2[C@@H]2O[C@H](CO)[C@@H](O)[C@@H]2O)ccc1-c1ccccc1 [Example 153]	1610 nM	–
CCCNCCCOc1cc(CNc2nc3c(N)ncnc3n2[C@@H]2O[C@H](CO)[C@@H](O)[C@H]2O)ccc1-c1ccccc1 [Example 147]	321 nM	–
O=[N+]([O-])c1ccc(CSc2ncnc3c2ncn3C2OC(CO)C(O)C2O)cc1 (stereo not shown) [NBMPR, nitrobenzylthioinosine]	–	IC50 (ENT2): > 1000 nM
Nc1ncnc2c1nc(NCc1ccc(-c3ccccc3)c(OCCCCO)c1)n2[C@@H]1O[C@H](CO)[C@@H](O)[C@H]1O [Example 82]	–	Percentage of increment of plasma uric acid level (%) [2]: 44.1 (p < 0.05) %; IC50 (human CNT2 [3]): 297 nM
NCCCOc1cc(CNc2nc3c(N)ncnc3n2[C@H]2C[C@H](O)[C@@H](CO)O2)ccc1-c1ccccc1 [Example 155]	266 nM	–
CCN(CC)CCCOc1cc(CNc2nc3c(N)ncnc3n2[C@@H]2O[C@H](CO)[C@@H](O)[C@H]2O)ccc1-c1ccccc1 [Example 115, 8-[2-(3-Diethylaminopropoxy)biphenyl-4-ylmethylamino]-adenosine]	378 nM	–
Nc1ncnc2c1nc(Br)n2[C@@H]1O[C@H](CO)[C@@H](O)[C@H]1O [8-bromoadenosine]	–	inhibitory activity against CNT (CNT): weak inhibitory activity
CCN(CCO)CCCOc1cc(CNc2nc3c(N)ncnc3n2[C@@H]2O[C@H](CO)[C@@H](O)[C@H]2O)ccc1-c1ccccc1 [Example 130]	223 nM	–

The next lines start with results.

IC50 (human CNT2 [1])	Structure (SMILES)	further results
378 nM	CN(C)CCCOc1cccc(-c2ccc(CNc3nc4c(N)ncnc4n3[C@@H]3O[C@H](CO)[C@@H](O)[C@H]3O)cc2)c1 [Example 117]	–
85 nM	NC(=O)[C@H](Cc1ccc(O)cc1)NCCCOc1cccc(-c2ccc(CNc3nc4c(N)ncnc4n3[C@@H]3O[C@H](CO)[C@@H](O)[C@H]3O)cc2)c1 [Example 164]	–
412 nM	C[N+](C)(C)CCCOc1cccc(-c2ccc(CNc3nc4c(N)ncnc4n3[C@@H]3O[C@H](CO)[C@@H](O)[C@H]3O)cc2)c1 [Example 167]	–
649 nM	Nc1ncnc2c1nc(NCc1ccc(-c3ccsc3)cc1)n2[C@@H]1O[C@H](CO)[C@@H](O)[C@H]1O [Example 132]	–
444 nM	Nc1ncnc2c1nc(NCc1ccc(-c3ccccc3)c(OCCCN3CCCC3)c1)n2[C@@H]1O[C@H](CO)[C@@H](O)[C@H]1O [Example 120]	–
234 nM	N=C(N)NCCCOc1cccc(-c2ccc(CNc3nc4c(N)ncnc4n3[C@@H]3O[C@H](CO)[C@@H](O)[C@H]3O)cc2)c1 [Example 157, 8-[3′-(3-Guanidinopropoxy)biphenyl-4-ylmethylamino]-adenosine]	–
528 nM	Nc1ncnc2c1nc(NCc1ccc(-c3cccc(OCCCN4CCCCC4)c3)cc1)n2[C@@H]1O[C@H](CO)[C@@H](O)[C@H]1O [Example 125]	–
7150 nM	NCCCOc1cccc(-c2ccc(CNc3nc4c(N)ncnc4n3[C@@H]3O[C@H](CO)[C@@H](O)[C@@H]3O)cc2)c1 [Example 154]	–
2430 nM	CN(C)CCCOc1cccc(-c2ccc(CCNc3nc4c(N)ncnc4n3[C@@H]3O[C@H](CO)[C@@H](O)[C@H]3O)cc2)c1 [Example 171]	–
176 nM	NCCCOc1ccc(-c2cccc(CNc3nc4c(N)ncnc4n3[C@@H]3O[C@H](CO)[C@@H](O)[C@H]3O)c2)cc1 [Example 149]	–
